Literature values, collected in patent publication US20040132663A1 (University of Utah Research Foundation, priority 2000, published 2004).

Settings: in vivo

Q: Which “potency in inhibiting pain relative to neurotensin” value does the source give for contulakin-G here?
A: Its value is “significantly more potent than neurotensin”.
